Test results from US9340577B2, “HLA binding motifs and peptides and their uses” (priority 1992, dated 2016).
No end group written: not given here.

Tests used:
Assay in all cases: biochemical
DRB1*0802 = DRB1*0802 (Homo sapiens, UniProt P01903+P01911, A100R/A103L/A169T/F76Y/H45Y/I96F/K41T/L162R/M171V/P40S/Q125H/Q178H/Q39Y/Q99D/R218S/R42G/S66Y/V115G/W38E); format: binding
DRB1*0901 = DRB1*0901 (Homo sapiens, UniProt P01903+P01911, A100R/A103E/D57H/D86V/F55Y/F60I/F76Y/I96F/K127E/L162R/M171V/P40D/Q125H/Q99R/R33Q/R42F/S133A/S66N/T210M/V115G/W38K/Y107V/Y59G/Y89S); format: binding
DRB1*1201 = DRB1*1201 (Homo sapiens, UniProt P01903+P01911, A100R/A169T/D57E/D86V/F55L/H45Y/K41T/L162R/M171V/P40S/Q125H/Q178H/Q39Y/Q99D/R42G/S66L/T262R/V114A/V67L/W38E/Y59H/Y61H/Y89S); format: binding
DRB1*1501 = DRB1*1501 (Homo sapiens, UniProt P01903+P01911); format: binding
DRB1*1101 = DRB1*1101 (Homo sapiens, UniProt P01903+P01911, A100R/A169T/A87E/I96F/K41T/L162R/M171V/P40S/Q125H/Q178H/Q39Y/Q99D/R42S/S66Y/T262R/V115G/W38E)
DRB5*0101 = DRB5*0101 (Homo sapiens, UniProt P01903+Q30154); conditions: Binding affinity DRB5 *0101
DR7 (DRB1*0701) = DR7 (DRB1*0701) (Homo sapiens, UniProt P01903+P01911, A100R/A102G/A103Q/D57E/D86V/E43K/F76Y/K127E/L162R/M171V/P40G/Q125H/Q99D/R33Q/R42Y/R54Q/S133A/S66F/T210M/V115G/Y107V/Y59L/Y89S); format: binding
DRB1*1302 = DRB1*1302 (Homo sapiens, UniProt P01903+P01911, A100E/A169T/K41T/L162R/M171V/P40S/Q125H/Q178H/Q39Y/Q99D/R42S/S66N/T262R/V115G/W38E/Y61H); format: binding
DR1 (DRB1*0101) = DR1 (DRB1*0101) (Homo sapiens, UniProt P01903+P01911, A100R/D57E/F55L/F60I/F76Y/I96L/L162R/M171V/P40L/Q125E/R42F/V115G/Y59C); format: binding
DRB1*0405 = DRB1*0405 (Homo sapiens, UniProt P01903+P01911, A100R/A169T/D86S/F76Y/I96L/K127E/L162R/M171V/N62H/P40V/Q125Y/R42H/S133A/S149N/S66Y/V115G/V209L/W38E); format: binding
DRB4*0101 = DRB4*0101 (Homo sapiens, UniProt P01903+P13762, G164S); format: binding
DR4w4 (DRB1*0401) = DR4w4 (DRB1*0401) (Homo sapiens, UniProt P01903+P01911, A100K/A169T/F76Y/I96L/K127E/L162R/M171V/N62H/P40V/Q125Y/R42H/S133A/S149N/S66Y/V115G/V209L/W38E); format: binding

Sequence of DRB1*1302 (P01903 26-254 limits assumed, other chains not shown): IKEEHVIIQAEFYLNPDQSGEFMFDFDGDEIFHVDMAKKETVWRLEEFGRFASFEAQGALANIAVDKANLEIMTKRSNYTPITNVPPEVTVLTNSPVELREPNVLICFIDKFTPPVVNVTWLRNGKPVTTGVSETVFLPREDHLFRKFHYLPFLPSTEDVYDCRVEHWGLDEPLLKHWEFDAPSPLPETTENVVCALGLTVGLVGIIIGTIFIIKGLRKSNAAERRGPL
Sequence of DRB1*1101 (P01903 26-254 limits assumed, other chains not shown): as above

Compound	IC50 (DRB1*0802)	IC50 (DRB1*0901)	IC50 (DRB1*1201)	IC50 (DRB1*1501)	IC50 (DRB1*1101; Binding affinity DRB1 *1101)	IC50 (DRB5*0101)	IC50 (DR7 (DRB1*0701))	IC50 (DRB1*1302)	IC50 (DR1 (DRB1*0101))	IC50 (DRB1*0405)	IC50 (DRB4*0101)	IC50 (DR4w4 (DRB1*0401))	IC50 (DRB1*1101; […])
CC[C@H](C)[C@H](NC(=O)[C@@H](NC(=O)[C@H](Cc1c[nH]cn1)NC(=O)[C@@H](N)CC(C)C)C(C)C)C(=O)N[C@@H](CO)C(=O)N[C@@H](CC(N)=O)C(=O)N[C@@H](CC(=O)O)C(=O)N[C@H](C(=O)N[C@@H](CS)C(=O)N[C@@H](C)C(=O)N[C@@H](CCC(N)=O)C(=O)N[C@H](C(=O)N[C@@H](Cc1c[nH]cn1)C(=O)N1CCC[C@H]1C(=O)N[C@@H](CCC(N)=O)C(=O)O)C(C)C)C(C)C [Peptide 68.0077]	> 20 µM	> 20 µM	> 20 µM	> 20 µM	> 20 µM	> 20 µM	–	–	–	–	–	–	–
CC[C@H](C)[C@H](NC(=O)[C@H](CO)NC(=O)[C@H](CO)NC(=O)[C@H](CC(=O)O)NC(=O)[C@H](C)NC(=O)[C@H](CC(N)=O)NC(=O)[C@@H](NC(=O)[C@H](Cc1ccc(O)cc1)NC(=O)[C@H](C)NC(=O)[C@@H](NC(=O)CNC(=O)[C@H](CCCNC(=N)N)NC(=O)[C@@H](N)CCC(=O)O)C(C)C)[C@@H](C)CC)C(=O)N[C@@H](CCC(=O)O)C(=O)NCC(=O)O [Peptide 68.0109]	> 20 µM	> 20 µM	> 20 µM	> 20 µM	> 20 µM	–	> 20 µM	–	–	–	–	–	–
CSCC[C@H](NC(=O)[C@H](CCC(=O)O)NC(=O)[C@H](CCC(N)=O)NC(=O)[C@@H]1CCCN1)C(=O)N[C@@H](CCCCN)C(=O)N[C@H](C(=O)N[C@@H](Cc1ccc(O)cc1)C(=O)N[C@@H](CO)C(=O)N[C@H](C(=O)N[C@@H](CO)C(=O)N[C@@H](Cc1ccccc1)C(=O)N[C@@H](CC(=O)O)C(=O)N[C@@H](CO)C(=O)N[C@@H](CC(C)C)C(=O)N[C@@H](Cc1ccccc1)C(=O)O)C(C)C)[C@@H](C)O [Peptide 68.0127]	> 20 µM	–	5.35 µM	–	> 20 µM	–	–	> 20 µM	–	–	–	–	–
CC(C)C[C@H](NC(=O)[C@H](CCC(N)=O)NC(=O)[C@H](CC(=O)O)NC(=O)[C@H](CCC(=O)O)NC(=O)[C@H](CO)NC(=O)[C@H](CC(C)C)NC(=O)[C@@H]1CCCN1C(=O)[C@@H](NC(=O)[C@@H](N)[C@@H](C)O)C(C)C)C(=O)N[C@@H](CC(C)C)C(=O)N[C@@H](Cc1ccc(O)cc1)C(=O)N[C@@H](CC(C)C)C(=O)N1CCC[C@H]1C(=O)N[C@@H](Cc1ccccc1)C(=O)N[C@@H](CCCNC(=N)N)C(=O)O [Peptide 68.0147]	> 20 µM	> 20 µM	9.69 µM	> 20 µM	> 20 µM	> 20 µM	–	–	–	–	–	–	–
CC[C@H](C)[C@H](NC(=O)[C@H](CCCCN)NC(=O)[C@H](CCSC)NC(=O)[C@H](CC(=O)O)NC(=O)[C@H](CCCNC(=N)N)NC(=O)[C@H](CCC(=O)O)NC(=O)[C@H](CC(C)C)NC(=O)[C@H](CCCCN)NC(=O)[C@H](Cc1ccccc1)NC(=O)[C@@H](N)Cc1ccccc1)C(=O)N[C@@H](CC(N)=O)C(=O)N[C@@H](CS)C(=O)N[C@@H](CO)C(=O)NCC(=O)N[C@@H](CCCCN)C(=O)O [Peptide 68.0168]	–	> 20 µM	6.94 µM	> 20 µM	–	–	> 20 µM	–	–	–	–	–	–
CWNYIDDNLRNALDG [Peptide 90.0041]	> 20 µM	> 20 µM	> 20 µM	> 20 µM	> 20 µM	> 20 µM	> 20 µM	> 20 µM	> 20 µM	> 20 µM	> 20 µM	–	–
DPRWPYLHSRLVVFH [Peptide 89.0113]	19.8 µM	5.4 µM	5.93 µM	–	5.14 µM	–	0.09 µM	0.013 µM	–	6.1 µM	0.098 µM	0.138 µM	–
ELQMALKGLAQSKYN [Peptide 90.0005]	0.127 µM	0.348 µM	0.041 µM	> 20 µM	0.064 µM	0.475 µM	> 20 µM	10 µM	0.081 µM	5.95 µM	–	2.22 µM	–
ESVFSSDEISFAGIV [Peptide 90.0195]	> 20 µM	0.672 µM	> 20 µM	1.98 µM	> 20 µM	> 20 µM	0.609 µM	0.235 µM	2.38 µM	8.58 µM	–	0.033 µM	–
GVYYIKDGDTTYYVQ [Peptide 90.0216]	5.62 µM	1.62 µM	5.74 µM	> 20 µM	> 20 µM	> 20 µM	–	–	1.55 µM	7.09 µM	> 20 µM	2.48 µM	–
ITFLGALKSFLKGTP [Peptide 89.0034]	–	7.62 µM	0.044 µM	0.128 µM	–	0.019 µM	2.96 µM	> 20 µM	0.018 µM	–	1.5 µM	–	–
IWEVHMENESIYCPD [Peptide 90.0237]	> 20 µM	5.49 µM	> 20 µM	> 20 µM	> 20 µM	> 20 µM	> 20 µM	1.96 µM	1.78 µM	> 20 µM	–	3.38 µM	–
IYIIEEDTCTMVTGK [Peptide 90.0204]	> 20 µM	> 20 µM	16.5 µM	18.7 µM	11.9 µM	> 20 µM	8.19 µM	0.994 µM	2.23 µM	18.7 µM	–	0.151 µM	–
LNVLKTSNAKAAMLA [Peptide 89.0003]	–	0.197 µM	0.531 µM	–	0.198 µM	0.768 µM	0.02 µM	0.0089 µM	0.033 µM	2.38 µM	0.509 µM	0.0034 µM	–
LSHVKIPVVYRLVWD [Peptide 90.0020]	3.57 µM	0.469 µM	0.1 µM	–	–	1.34 µM	–	0.329 µM	0.079 µM	0.525 µM	0.022 µM	3.95 µM	–
MAIFGVNPTVAEGFK [Peptide 89.0081]	1.09 µM	1.56 µM	1.2 µM	–	0.041 µM	–	–	0.035 µM	–	0.036 µM	0.426 µM	0.075 µM	–
PEWIDRLTVLQHSFN [Peptide 89.0070]	–	4.15 µM	0.203 µM	0.982 µM	2.64 µM	> 20 µM	> 20 µM	–	2.61 µM	0.079 µM	0.013 µM	–	–
PRWLCAGALVLAGGF [Peptide 68.0083]	> 20 µM	–	4.6 µM	–	> 20 µM	> 20 µM	–	> 20 µM	–	–	–	–	–
SEIYIIEETTCTLVA [Peptide 90.0250]	> 20 µM	> 20 µM	> 20 µM	–	> 20 µM	> 20 µM	> 20 µM	0.399 µM	–	8.08 µM	0.231 µM	–	–
SLSLGFLFLLFFWLD [Peptide 68.0022]	> 20 µM	> 20 µM	1.22 µM	–	–	> 20 µM	> 20 µM	–	–	–	> 20 µM	–	> 20 µM
VSFLSALKLFLKGVP [Peptide 89.0053]	0.29 µM	2.12 µM	0.082 µM	1.45 µM	0.064 µM	–	–	–	0.023 µM	–	0.023 µM	1.57 µM	–
